Results from patent US9011988B2, “Liquid-crystal compound, liquid-crystal composition, light absorption anisotropic film, and liquid-crystal display device” (Fujifilm Corporation, priority 2010, dated 2015).

Key:
Assay type in all cases: physicochemical
[1] = Maximum absorption wavelength of the dye in N-methylpyrrolidone (UV-2550 spectrophotometer); settings: for λmax: in N-methylpyrrolidone solvent
Experimental: <Maximum Absorption Wavelength>
The maximum absorption wavelength of the dye in N-methylpyrrolidone solvent was measured with a UV-2550 spectrophotometer (made by Shimadzu Corp.).

[2] = Solubility in chloroform / preparation of chloroform coating liquid
Experimental: The solubility of these compounds in chloroform was measured.
Following stirring and dissolution, a liquid-crystal composition coating liquid was obtained. Each of the coating liquids was then coated on an alignment film that had been formed on a glass substrate and had been rubbed. Subsequently, the chloroform was allowed to dry naturally at room temperature, yielding individual light absorption anisotropic films. The polyvinylalcohol indicated below was employed as the alignment film.

[3] = Light resistance of light absorption anisotropic film (change in intensity of absorption)
Experimental: While being heated from room temperature to 200° C., each of the light absorption anisotropic films that had been prepared was irradiated with 10 mW of light and the light resistance was determined based on the change in the intensity of absorption.

[4] = Phase transition temperature by DSC thermal analysis and polarizing microscope observation
Experimental: <Phase Transition Temperature>
The phase transition temperature was determined by thermal analysis with a DSC measurement apparatus (made by Seiko Instruments) and by visual observation with a polarizing microscope.

[5] = light absorption anisotropic film irradiated with 10 mW of light while heated from room temperature to 200° C., change in intensity of absorption

In the case of `CCCCCCOc1ccc(/C=C/c2ccc(/C=C/c3cc(OCCOCCOCCOCCOCCOCCO)c(/C=C/c4ccc(/C=C/c5ccc(OCCCCCC)cc5)cc4)cc3OC)cc2)cc1` [Comparative Compound 2, reference compound], the original absorption wavelength [1] is reported as 432.5 nm, the “solubility in chloroform (in words)” value [2] is reported as “good solubility” and the Light resistance ([3]; film heated from room temperature to 200° C., irradiated with 10 mW of light) is reported as “poor light resistance”. The Light resistance [3, 5] was “Poor”.
With `CCCCCCOc1ccc(N=Nc2ccc(C=Cc3cc(OC)c(C=Cc4ccc(N=Nc5ccc(OCCCCCC)cc5)cc4)cc3OC)cc2)cc1` [A-34] the λmax [1] was 463.4 nm and the “temperature range in which nematic liquid crystallinity was confirmed” value [4] was ≥ 247 °C.
For `CCCCCCOc1ccc(N=Nc2ccc(C=Cc3cc(OCCOCCOCCOC)c(C=Cc4ccc(N=Nc5ccc(OCCCCCC)cc5)cc4)cc3OC)cc2)cc1` [A-3], the λmax [1] was 463.3 nm and the Light resistance [3, 5] was “Good”.
For `CCCCCCOc1ccc(N=Nc2ccc(C=Cc3cc(OCCOCCOCCO)c(C=Cc4ccc(N=Nc5ccc(OCCCCCC)cc5)cc4)cc3OC)cc2)cc1` [A-4], the λmax [1] was 463.8 nm and the Light resistance [3, 5] was “Good”.
In the case of `CCCCCCCCCCCCCCCCCCOc1cc(C=Cc2ccc(N=Nc3ccc(OCCCCCC)cc3)cc2)c(OC)cc1C=Cc1ccc(N=Nc2ccc(OCCCCCC)cc2)cc1` [A-9], the λmax [1] is reported as 460.0 nm and the Light resistance [3, 5] is reported as “Good”.
In the case of `CCCCCCOc1ccc(N=Nc2ccc(C=Cc3cc(OCCOCCOCCOC)c(C=Cc4ccc(N=Nc5ccc(OCCCCCC)cc5)cc4)cc3OCCOCCOCCOC)cc2)cc1` [A-10], the λmax [1] is reported as 457.5 nm and the Light resistance [3, 5] is reported as “Good”.
In the case of `CCCCc1ccc(N=Nc2ccc(N=Nc3ccc(N=Nc4ccc(N=Nc5ccc(N=Nc6ccc(CCCC)cc6)cc5)cc4C)c(C)c3)cc2)cc1` [Comparative Compound 1], the “temperature range in which nematic liquid crystallinity was confirmed” value [4] is reported as ≥ 220 °C, the “preparation of coating liquid” value ([2]; 1 weight part compound in 99 weight parts of chloroform) is reported as “precluding preparation of a coating liquid” and the “solubility in chloroform (in words)” value [2] is reported as “almost no solubility”.
